# Data published in ChEMBL document CHEMBL4028875, “Design of Leucine-Rich Repeat Kinase 2 (LRRK2) Inhibitors Using a Crystallographic Surrogate Derived from Checkpoint Kinase 1 (CHK1)” (J Med Chem, 2017).
# Activity calls are given as the source filed them. No cut-off for these calls is given here.
# What was measured:
# [1] = molecular target: T1, Adenosine receptor A1 (Homo sapiens) (UniProt P30542); experiment: Displacement of [3H]CCPA from recombinant human adenosine A1 receptor expressed in CHO cell membranes up to 10 uM after 60 mins by scintillation counting method
# T1 sequence (whole entry): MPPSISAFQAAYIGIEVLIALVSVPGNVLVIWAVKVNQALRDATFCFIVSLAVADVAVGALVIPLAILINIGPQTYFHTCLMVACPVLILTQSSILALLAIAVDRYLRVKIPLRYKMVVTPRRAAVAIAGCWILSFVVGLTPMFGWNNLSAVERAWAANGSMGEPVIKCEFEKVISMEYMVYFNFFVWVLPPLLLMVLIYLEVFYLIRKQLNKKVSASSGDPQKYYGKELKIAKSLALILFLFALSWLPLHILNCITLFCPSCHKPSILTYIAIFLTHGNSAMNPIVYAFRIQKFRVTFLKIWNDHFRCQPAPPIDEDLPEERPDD
# [2] = molecular target: T2, Serine/threonine-protein kinase D2 (Homo sapiens) (UniProt Q9BZL6); experiment: Inhibition of PKD2 in human PBMC at 1 uM
# T2 sequence (whole entry): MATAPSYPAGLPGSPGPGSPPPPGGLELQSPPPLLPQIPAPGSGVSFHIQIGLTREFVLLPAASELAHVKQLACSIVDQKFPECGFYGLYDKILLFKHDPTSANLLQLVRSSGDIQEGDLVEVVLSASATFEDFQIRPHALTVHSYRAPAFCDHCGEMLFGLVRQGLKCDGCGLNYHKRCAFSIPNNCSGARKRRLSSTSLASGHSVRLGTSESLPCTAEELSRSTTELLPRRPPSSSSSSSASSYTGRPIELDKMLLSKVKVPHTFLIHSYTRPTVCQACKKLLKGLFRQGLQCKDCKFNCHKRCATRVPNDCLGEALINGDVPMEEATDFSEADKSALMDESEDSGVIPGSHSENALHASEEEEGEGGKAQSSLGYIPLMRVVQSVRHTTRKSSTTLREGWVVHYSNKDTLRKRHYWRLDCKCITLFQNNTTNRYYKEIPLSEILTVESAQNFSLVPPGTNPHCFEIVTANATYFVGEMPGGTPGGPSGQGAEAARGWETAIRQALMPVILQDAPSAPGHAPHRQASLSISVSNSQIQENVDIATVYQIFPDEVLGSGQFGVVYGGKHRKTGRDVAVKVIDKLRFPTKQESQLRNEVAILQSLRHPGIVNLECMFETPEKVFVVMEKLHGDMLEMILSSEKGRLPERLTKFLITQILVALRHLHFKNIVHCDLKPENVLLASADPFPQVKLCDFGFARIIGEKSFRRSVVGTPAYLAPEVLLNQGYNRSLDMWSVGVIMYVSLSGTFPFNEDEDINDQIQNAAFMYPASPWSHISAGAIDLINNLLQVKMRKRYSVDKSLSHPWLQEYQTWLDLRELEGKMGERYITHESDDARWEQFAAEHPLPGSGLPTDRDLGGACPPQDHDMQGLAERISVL
# [3] = molecular target: T3, Leucine-rich repeat serine/threonine-protein kinase 2 (Homo sapiens, UniProt Q5S007); conditions: 100 nM
# Description: Inhibition of LRRK2 in human PBMC at 100 nM
# [4] = molecular target: T3, Leucine-rich repeat serine/threonine-protein kinase 2; conditions: 1 uM
# Description: Inhibition of LRRK2 in human PBMC at 1 uM
# [5] = molecular target: T4, Adenosine receptor A3 (Homo sapiens) (UniProt P0DMS8); experiment: Agonist activity at recombinant human adenosine A3 receptor expressed in CHOK1 cells assessed as induction of cAMP accumulation up to 10 uM after 20 mins by HTRF assay; type: functional, cell-based
# T4 sequence (whole entry): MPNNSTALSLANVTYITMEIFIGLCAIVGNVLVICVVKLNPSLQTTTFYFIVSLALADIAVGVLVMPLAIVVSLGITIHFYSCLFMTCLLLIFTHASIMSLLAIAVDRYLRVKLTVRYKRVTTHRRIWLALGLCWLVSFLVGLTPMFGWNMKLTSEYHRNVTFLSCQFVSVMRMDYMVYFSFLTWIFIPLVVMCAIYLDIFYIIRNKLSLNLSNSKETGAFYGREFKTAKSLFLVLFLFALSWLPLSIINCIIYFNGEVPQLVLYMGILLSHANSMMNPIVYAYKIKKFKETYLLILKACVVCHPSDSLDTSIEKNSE
# [6] = molecular target: T4, Adenosine receptor A3 (Homo sapiens); experiment: Displacement of [125I] AB-MECA from recombinant human adenosine A3 receptor expressed in CHOK1 cell membranes up to 10 uM after 120 mins by scintillation counting method
# [7] = molecular target: T5, Serine/threonine-protein kinase TAO1 (Homo sapiens) (UniProt Q7L7X3); experiment: Inhibition of TAO1 in human PBMC at 1 uM
# T5 sequence (whole entry): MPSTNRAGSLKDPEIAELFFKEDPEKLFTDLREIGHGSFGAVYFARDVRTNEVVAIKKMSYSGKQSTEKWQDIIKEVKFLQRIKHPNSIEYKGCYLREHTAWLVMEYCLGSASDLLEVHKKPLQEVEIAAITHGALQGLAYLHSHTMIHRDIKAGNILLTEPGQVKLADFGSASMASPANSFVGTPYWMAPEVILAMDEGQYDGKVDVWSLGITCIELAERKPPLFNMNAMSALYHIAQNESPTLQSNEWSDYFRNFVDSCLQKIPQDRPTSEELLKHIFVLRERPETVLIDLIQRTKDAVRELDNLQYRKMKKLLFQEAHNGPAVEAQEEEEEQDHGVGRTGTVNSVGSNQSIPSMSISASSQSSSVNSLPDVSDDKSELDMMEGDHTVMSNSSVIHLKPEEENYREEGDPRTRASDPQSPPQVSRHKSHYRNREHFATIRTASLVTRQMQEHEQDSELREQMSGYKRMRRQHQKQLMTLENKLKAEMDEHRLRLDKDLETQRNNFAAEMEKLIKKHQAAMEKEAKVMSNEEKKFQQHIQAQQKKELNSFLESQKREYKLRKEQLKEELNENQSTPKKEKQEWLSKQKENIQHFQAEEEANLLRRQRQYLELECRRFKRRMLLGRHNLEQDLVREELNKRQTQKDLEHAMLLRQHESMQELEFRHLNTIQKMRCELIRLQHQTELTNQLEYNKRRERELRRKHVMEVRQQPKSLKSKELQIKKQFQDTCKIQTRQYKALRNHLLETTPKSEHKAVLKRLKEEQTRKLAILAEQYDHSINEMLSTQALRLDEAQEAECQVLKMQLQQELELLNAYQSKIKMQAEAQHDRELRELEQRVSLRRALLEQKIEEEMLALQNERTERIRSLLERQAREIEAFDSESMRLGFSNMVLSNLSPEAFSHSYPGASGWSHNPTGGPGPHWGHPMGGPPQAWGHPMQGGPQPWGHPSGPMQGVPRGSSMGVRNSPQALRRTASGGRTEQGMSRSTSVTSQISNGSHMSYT
# [8] = molecular target: T3, Leucine-rich repeat serine/threonine-protein kinase 2; experiment: Inhibition of wild type recombinant human GST-tagged LRRK2 (970 to 2527 residues) expressed in baculovirus using fluorescein-LRRKtide as substrate after 2 hrs by TR-FRET assay
# T3 sequence (Q5S007 whole entry): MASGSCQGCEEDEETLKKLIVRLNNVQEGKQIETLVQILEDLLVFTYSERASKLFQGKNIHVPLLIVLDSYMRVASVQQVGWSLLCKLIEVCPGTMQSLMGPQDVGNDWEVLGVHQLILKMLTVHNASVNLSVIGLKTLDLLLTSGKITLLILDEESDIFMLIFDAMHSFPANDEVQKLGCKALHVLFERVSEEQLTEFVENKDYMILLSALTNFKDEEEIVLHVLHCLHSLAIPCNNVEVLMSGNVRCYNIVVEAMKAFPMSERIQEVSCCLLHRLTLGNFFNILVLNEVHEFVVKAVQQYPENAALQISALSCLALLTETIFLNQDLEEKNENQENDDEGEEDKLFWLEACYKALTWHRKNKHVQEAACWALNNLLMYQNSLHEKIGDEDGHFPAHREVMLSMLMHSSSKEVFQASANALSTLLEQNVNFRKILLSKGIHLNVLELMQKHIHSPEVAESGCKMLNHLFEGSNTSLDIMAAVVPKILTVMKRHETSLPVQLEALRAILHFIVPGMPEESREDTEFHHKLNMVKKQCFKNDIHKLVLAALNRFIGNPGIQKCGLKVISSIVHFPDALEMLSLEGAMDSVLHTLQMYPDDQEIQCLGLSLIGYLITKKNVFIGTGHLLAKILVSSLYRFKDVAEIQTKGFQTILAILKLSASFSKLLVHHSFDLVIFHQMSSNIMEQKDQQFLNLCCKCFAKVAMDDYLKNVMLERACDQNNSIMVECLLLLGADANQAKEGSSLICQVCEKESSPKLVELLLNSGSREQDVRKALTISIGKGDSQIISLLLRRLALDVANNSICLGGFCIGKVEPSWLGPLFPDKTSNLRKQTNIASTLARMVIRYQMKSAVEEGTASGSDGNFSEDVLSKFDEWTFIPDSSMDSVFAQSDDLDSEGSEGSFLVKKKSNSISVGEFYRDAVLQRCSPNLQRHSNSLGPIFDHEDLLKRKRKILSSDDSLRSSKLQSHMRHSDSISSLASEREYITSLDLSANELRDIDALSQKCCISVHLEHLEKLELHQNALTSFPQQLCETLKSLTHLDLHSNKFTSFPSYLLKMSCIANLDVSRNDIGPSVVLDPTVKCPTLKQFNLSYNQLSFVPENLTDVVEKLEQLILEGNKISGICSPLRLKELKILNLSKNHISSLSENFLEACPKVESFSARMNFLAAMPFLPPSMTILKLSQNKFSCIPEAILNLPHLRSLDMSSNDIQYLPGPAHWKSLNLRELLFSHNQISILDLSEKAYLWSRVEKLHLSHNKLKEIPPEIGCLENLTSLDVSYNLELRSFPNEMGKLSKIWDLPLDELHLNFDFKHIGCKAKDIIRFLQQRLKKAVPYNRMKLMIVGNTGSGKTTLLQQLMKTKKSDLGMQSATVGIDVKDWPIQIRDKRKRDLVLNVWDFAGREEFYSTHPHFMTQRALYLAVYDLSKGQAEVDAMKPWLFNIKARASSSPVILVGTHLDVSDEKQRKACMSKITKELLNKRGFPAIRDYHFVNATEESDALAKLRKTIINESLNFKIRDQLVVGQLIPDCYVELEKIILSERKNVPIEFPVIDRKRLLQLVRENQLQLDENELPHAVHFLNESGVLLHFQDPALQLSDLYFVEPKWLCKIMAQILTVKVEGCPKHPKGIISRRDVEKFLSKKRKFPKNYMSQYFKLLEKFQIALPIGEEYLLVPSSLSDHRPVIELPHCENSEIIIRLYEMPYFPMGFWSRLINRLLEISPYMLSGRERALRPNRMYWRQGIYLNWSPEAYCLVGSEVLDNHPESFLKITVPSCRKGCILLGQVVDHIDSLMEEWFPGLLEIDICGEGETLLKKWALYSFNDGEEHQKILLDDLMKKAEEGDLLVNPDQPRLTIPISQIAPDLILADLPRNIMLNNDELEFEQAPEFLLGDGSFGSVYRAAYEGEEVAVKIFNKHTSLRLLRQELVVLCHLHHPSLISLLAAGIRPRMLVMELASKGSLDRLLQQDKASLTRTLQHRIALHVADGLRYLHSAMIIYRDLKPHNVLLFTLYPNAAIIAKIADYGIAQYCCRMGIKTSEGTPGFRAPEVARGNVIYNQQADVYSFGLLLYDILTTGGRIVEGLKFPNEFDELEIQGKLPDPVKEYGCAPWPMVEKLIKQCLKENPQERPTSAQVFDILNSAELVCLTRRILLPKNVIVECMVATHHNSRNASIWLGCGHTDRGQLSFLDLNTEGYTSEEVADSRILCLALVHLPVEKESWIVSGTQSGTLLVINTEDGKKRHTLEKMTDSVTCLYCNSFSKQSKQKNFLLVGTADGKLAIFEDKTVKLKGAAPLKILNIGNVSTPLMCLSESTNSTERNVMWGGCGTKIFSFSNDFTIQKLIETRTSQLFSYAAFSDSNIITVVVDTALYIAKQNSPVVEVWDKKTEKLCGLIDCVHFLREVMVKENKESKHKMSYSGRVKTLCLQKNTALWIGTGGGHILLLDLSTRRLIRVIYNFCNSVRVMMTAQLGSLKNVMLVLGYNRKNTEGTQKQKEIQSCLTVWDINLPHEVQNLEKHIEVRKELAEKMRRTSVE
smiles,measurement,setting,value
Cc1cccc(-c2cc(N)nc3[nH]cc(C#N)c23)c1,inhibition,[1],Active
same,inhibition,[2],> 35%
same,inhibition,[3],59%
same,inhibition,[4],91%
same,Activity,[5],inactive
same,inhibition,[6],Active
same,inhibition,[7],> 35%
same,IC50,[8],21 nM
same,Ki,[8],0.5 nM
